# Counter-ions that a name gives are not always drawn.
# Experiments:
# recombinant αSN = molecular target: T1, recombinant αSN (Homo sapiens, UniProt P37840); assay: Non-seeded Thioflavin-T assay (monomer induced aggregation); type: biochemical; conditions: 140 μM αSN monomer, 70 μM compound (1:2), 900 RPM, 37 °C
# T1 construct: made in house; host or cells: Escherichia coli BL21(DE3), T7-7 plasmid
# Description: ThT aggregation assays monitor the kinetics and extent of fibril formation due to spontaneous and seeded aggregation[26],[92]–[95]. The cascade of spontaneous αSN fibrillization includes formation and maturation of oligomeric αSN assemblies[96],[97]. Figure 10 presents spontaneous ThT aggregation for αSN(m) (140 µM) with or without hit compounds RO, DEM, and Bay (70 µM; a sub-stoichiometric ratio, 1:2, compound:protein).
# Fig. 10 Monomer induced aggregation of αSN (non-seeded Thioflavin-T assay). Recombinant αSN was incubated at 140 μM monomer (70 μM compound) under continuous shaking (900 RPM) at 37 °C. All three hit compounds modulated αSN fibrillization with RO having a more significant effect over Bay and DEM, respectively.
# ThT (Sigma, product no. T3516) was dissolved in PBS buffer and was filtered through a 0.2-µm syringe filter to make a stock solution of 2.5 mM. Working ThT concentration was 20 µM. PFF seeds were produced via constant agitation of 1000 RPM at 37 °C (ThermoMixer-C, Eppendorf, Hauppauge, NY) of 500 µL of 350 µM αSN in PBS in a 2 mL tube for 5 days. PFFs were aliquoted and flash frozen and stored at −80 °C until further use. PFF seeds were rapidly thawed, diluted to 35 µM in PBS, and sonicated 120 pulses at 50% using a probe-tip sonicator following the established protocols. Master mix samples for each of the different ThT assays were prepared and dispensed in triplicate as 50 µL in 384-well flat, black-bottom polypropylene plates (PN 781209, Greiner Bio-One) and sealed with fluorescently transparent film. Conditions for non-seeded, seeded, and cell homogenate assays varied slightly.
# Non-seeded ThT master mix was prepared in cell culture PBS with 140 µM (2 mg/mL) αSN(m) and dispensed into compound plates at 70 µM final compound concentration (1:2 compound:protein ratio).
# [1] = molecular target: T2, A53T αSN oligomer (inter-protomeric) FRET biosensor in HEK293 cells (Homo sapiens, UniProt P37840, A53T); assay: FLT dose response, A53T oligomer (inter-protomeric) FRET biosensor; type: cell-based; conditions: 1 nM to 50 μM
# T2 construct: In addition to full-length αSN fusion constructs, we observe both C-terminally and N-terminally truncated αSN species; expressed in transfected cells; host or cells: HEK293
# Description: Hits from the pilot HTS of the LOPAC library were selected and dispensed into 384-well plates to verify reproducible and specific FLT trends using the WT and A53T oligomer (inter-protomeric) FRET biosensors. Figure 6 presents a subset of these dose-response curves for hit compounds RO, BAY, SB206553, and DEM, along with known control compound EGCG. […] Assay quality was determined by Z′ (Eq. 2) where a Z′ > 0.5 indicates good assay quality. Using EGCG as control compound and the hit DEM, we calculated Z′ value of 0.76 and 0.66, respectively, indicating excellent assay quality.
# Fig. 6 FRET dose response of pilot HTS hits. A subset of hits were evaluated using both WT (a) and A53T (b) oligomer biosensor to verify both increased FLT (disrupting αSN–αSN interactions) and decreased FLT (tighter aggregation or remodeled oligomers).
# Compounds were tested in a FLT dose-response assay. The compound was dissolved to 10 mM in DMSO, then serially diluted in 96-well mother plates. Each hit was re-screened for FLT dose response across eight concentrations (1 nM to 50 μM). Compounds (0.5 μL) were transferred from mother plates into assay plates using a Mosquito HV liquid handler (TTP Labtech Ltd, UK). The preparations for αSN FRET biosensors were carried out as above.
# [2] = molecular target: T3, intra-protomeric αSN biosensor (GFP-αSN-RFP) in HEK293 cells (Homo sapiens, UniProt P37840); assay: FRET response on intra-protomeric αSN biosensor; type: cell-based; conditions: 10 µM
# T3 construct: In addition to full-length αSN fusion constructs, we observe both C-terminally and N-terminally truncated αSN species; expressed in transfected cells; host or cells: HEK293
# Description: Hits were also evaluated with the intra-protomeric αSN and control, non-specific biosensors. […] The compounds RO, BAY, and DEM as well as the control EGCG each reduced FRET, indicating either reduction in oligomerization or expanded oligomer conformation. Tests of these compounds in two control biosensor systems (GFP/RFP at 1:8 and GFP-linker32-RFP; see Supplementary Fig. 13a, b, respectively) show no significant FRET change.
# Fig. 7 FRET response to pilot HTS hits on intra-protomeric αSN biosensor. […] With both donor and acceptor XFP fused to one construct, this biosensor is sensitive to both oligomer formation as well as conformation. […] Experiments were performed with n = 3; *p < 0.05, **p < 0.01, ***p < 0.001, ns indicates no significant difference as determined by Student’s t test.
# αSN oligomers = molecular target: T4, αSN oligomers (Homo sapiens, UniProt P37840); assay: ThT content (β-sheet) of αSN oligomers after oligomerization assay; type: biochemical; conditions: 70 μM compound (1:5 compound:monomer), 12 h oligomerization; vs DMSO
# T4 construct: made in house; host or cells: Escherichia coli BL21(DE3), T7-7 plasmid
# Description: To explore the presence of β-sheet content in these oligomers, an aliquot was removed prior to cross-linking, diluted into 100 μM ThT working solution, and ThT fluorescence was monitored to detect the presence of β-sheet. Supplementary Fig. 22 presents each sample ThT content normalized to the PFF signal. We observed an increased ThT content in the αSN oligomers (αS-O) that was not affected by DMSO (vehicle) treatment.
# A 10-μL aliquot from each sample was taken and diluted with 290 μL ThT working solution (100 μM ThT in PBS) and dispensed into 3 wells of a 384-well, black opaque plate. Additional samples of PBS, αSN(m), and αSN PFF were used as controls. Plates were incubated at ambient temperature for 10 min and then fluorescence read at 450ex/490em on a Spectromax-i3x (Molecular Devices).
# Supplemental Figure 22. Characterization of β-sheet content in αSN oligomers due to hit compound
# After the 12-hour oligomerization assay aliquots of each sample were
# removed and diluted in 100μM ThT and fluorescence read in triplicate (450ex/490em) in 384-well plates. The
# ThT signal was normalized to a signal from previously frozen αSN PFF aliquots. After completion of the
# PFF, green bar) and the ThT signal was not affected by DMSO (red bar). Oligomerization in the presence of
# control compounds, EGCG and Baicalin, at 70μM (a sub-stoichiometric,1:5 compound: monomer ratio)
# Our hit compounds RO, DEM, and BAY had differential effects with
# both DEM and BAY resulting in increased ThT content and RO not producing a significant change relative to
# (1 picture or pasted object on this page, not shown here)
"ThT signal, spontaneous (non-seeded) aggregation (recombinant αSN)",FLT trend in dose response [1],change in intra-protomeric FRET [2],ThT signal of αSN oligomers (αSN oligomers),SMILES
lesser degrees of attenuation,reduced FLT,reduced FRET,increased the ThT signal,"COC(=O)C1=C(C)NC(C)=C([N+](=O)[O-])C1c1ccccc1C(F)(F)F (racemic) [BAY, (±)-Bay K 8644]"
lesser degrees of attenuation,reduced FLT,reduced FRET,increased the ThT signal,"CN(C)[C@@H]1C(O)=C(C(N)=O)C(=O)[C@@]2(O)C(O)=C3C(=O)c4c(O)ccc(Cl)c4[C@@H](O)[C@H]3C[C@@H]12 [DEM, Demeclocycline HCl]"
significant ThT signal reduction,reduced FLT,reduced FRET,no effect,"Nc1ccc(-c2nc3ccc(-c4nc5ccc(N)cc5[nH]4)cc3[nH]2)cc1 [RO, Ro 90–7501]"

# — article PMC8238948, “Potent inhibitors of toxic alpha-synuclein identified via cellular time-resolved FRET biosensors” (NPJ Parkinson's Disease, 2021)
